Data: ChEMBL document CHEMBL4316614, “Design, synthesis and biological evaluation of 1,4-dihydroxyanthraquinone derivatives as anticancer agents” (Bioorg Med Chem Lett, 2019)
Calls of active or inactive are those of the source. The calls are words filed in the database; no cut-off is given here.

Key:
DNA topoisomerase II [1] = biological target: T1, DNA topoisomerase II (Homo sapiens, UniProt P11388+Q02880); assay: Inhibition of topoisomerase 2 in human HeLa cells assessed as reduction in cell growth measured after 72 hrs by MTT assay; format: cell-based
DNA topoisomerase II [2] = biological target: T1, DNA topoisomerase II; assay: Inhibition of topoisomerase 2 in human MCF7 cells assessed as reduction in cell growth measured after 72 hrs by MTT assay; format: cell-based
DNA topoisomerase II [3] = biological target: T1, DNA topoisomerase II; assay: Inhibition of topoisomerase 2 in human MDA-MB-231 cells assessed as reduction in cell growth measured after 72 hrs by MTT assay; format: cell-based
DNA topoisomerase II [4] = biological target: T1, DNA topoisomerase II; assay: Inhibition of topoisomerase 2 in human A549 cells assessed as reduction in cell growth measured after 72 hrs by MTT assay; format: cell-based
DNA topoisomerase II [5] = biological target: T1, DNA topoisomerase II; assay: Inhibition of topoisomerase 2 in human HepG2 cells assessed as reduction in cell growth measured after 72 hrs by MTT assay; format: cell-based
DNA topoisomerase II [6] = biological target: T1, DNA topoisomerase II; assay: Inhibition of topoisomerase 2 in human CNE1 cells assessed as reduction in cell growth measured after 72 hrs by MTT assay; format: cell-based
L02 = assay: Cytotoxicity against human L02 cells assessed as inhibition of cell growth measured after 72 hrs by MTT assay; format: cell-based; conditions: L02, 72 h
HepG2 [7] = assay: Induction of apoptosis in human HepG2 cells assessed as apoptotic cells at 32 uM measured after 48 hrs by Annexin V-APC staining based flow cytometry (reference value: 5.37%); format: functional
HepG2 [8] = assay: Induction of apoptosis in human HepG2 cells measured after 48 hrs by Annexin V-APC staining based flow cytometry; format: functional, cell-based
HepG2 [9] = assay: Induction of morphological changes in human HepG2 cells assessed as appearance of foamy nucleus at 2 to 16 uM by confocal microscopic analysis; format: functional, cell-based
HepG2 [10] = assay: Induction of morphological changes in human HepG2 cells assessed as nuclear shrinkage at 2 to 16 uM by confocal microscopic analysis; format: functional, cell-based
[11] = Drug uptake in nucleus of human HepG2 cells at 2 to 16 uM by confocal microscopic analysis; format: ADME, subcellular; conditions: hepg2, 16 µM
HepG2 [12] = assay: Induction of apoptosis in human HepG2 cells assessed as cell shrinkage at 4 to 16 uM measured after 48 hrs by Hoechst 33342 staining based fluorescence microscopic analysis; format: functional
HepG2 [13] = assay: Induction of apoptosis in human HepG2 cells assessed as formation of granular apoptotic body formation at 4 to 16 uM measured after 48 hrs by Hoechst 33342 staining based fluorescence microscopic analysis; format: functional, cell-based
HepG2 [14] = assay: Induction of morphological changes in human HepG2 cells assessed as nuclear deformation at 2 to 16 uM by confocal microscopic analysis; format: functional, cell-based
[15] = Drug uptake in cytoplasm of human HepG2 cells at 2 to 16 uM by confocal microscopic analysis; format: ADME, subcellular; conditions: hepg2, 16 µM
HepG2 [16] = assay: Induction of apoptosis in human HepG2 cells assessed as apoptotic cells at 8 uM measured after 48 hrs by Annexin V-APC staining based flow cytometry (reference value: 5.37%); format: functional
HepG2 [17] = assay: Induction of apoptosis in human HepG2 cells assessed as apoptotic cells at 16 uM measured after 48 hrs by Annexin V-APC staining based flow cytometry (reference value: 5.37%); format: functional
HepG2 [18] = assay: Induction of apoptosis in human HepG2 cells assessed as apoptotic cells at 4 uM measured after 48 hrs by Annexin V-APC staining based flow cytometry (reference value: 5.37%); format: functional

Row | SMILES | IC50 (DNA topoisomerase II [1]) [µM] | IC50 (DNA topoisomerase II [2]) [µM] | IC50 (DNA topoisomerase II [3]) [µM] | IC50 (DNA topoisomerase II [4]) [µM] | IC50 (DNA topoisomerase II [5]) [µM] | IC50 (DNA topoisomerase II [6]) [µM] | IC50 (L02) [µM] | Activity (HepG2 [7]) [%] | Activity (HepG2 [8]) | Activity (HepG2 [9]) | Activity (HepG2 [10]) | Drug uptake [11] | Activity (HepG2 [12]) | Activity (HepG2 [13]) | Activity (HepG2 [14]) | Drug uptake [15] | Activity (HepG2 [16]) [%] | Activity (HepG2 [17]) [%] | Activity (HepG2 [18]) [%]
1 | COc1cccc2c1C(=O)c1c(O)c3c(c(O)c1C2=O)C[C@@](O)(C(=O)CO)C[C@@H]3O[C@H]1C[C@H](N)[C@H](O)[C@H](C)O1 [DOXORUBICIN] | 3.3 | 1.5 | 3.8 | 2.3 | 2.6 | 1.2 | 3.5 |  |  |  |  |  |  |  |  |  |  |  | 
2 | O=C1c2ccccc2C(=O)c2c(O)c(C(O)c3cc(Br)cs3)cc(O)c21 (centres undefined) | 18.4 | 17.5 | 33.3 | 41.5 | 23.9 | 19.7 | > 50 |  |  |  |  |  |  |  |  |  |  |  | 
3 | O=C1c2ccccc2C(=O)c2c(O)c(C(c3ccc(C(F)(F)F)cc3)N(CCCl)CCCl)cc(O)c21 (centres undefined) | > 50 | > 50 | > 50 | > 50 | > 50 | 16.1 | > 50 |  |  |  |  |  |  |  |  |  |  |  | 
4 | CC(C)=CC[C@@H](O)C1=CC(=O)c2c(O)ccc(O)c2C1=O [SHIKONIN] | 6.7 | 5.7 | 7.8 | 16 | 6.2 | 12.5 | 13 |  |  |  |  |  |  |  |  |  |  |  | 
5 | O=C1c2ccccc2C(=O)c2c(O)c(C(O)c3ccc(C(F)(F)F)cc3)cc(O)c21 (centres undefined) | 20.7 | 27.4 | 38.1 | 23.3 | 14.9 | 13.7 | > 50 |  |  |  |  |  |  |  |  |  |  |  | 
6 | COc1ccc(C(O)c2cc(O)c3c(c2O)C(=O)c2ccccc2C3=O)cc1Br (centres undefined) | 29.8 | 45.6 | 43.7 | 24.1 | 12.8 | 16.7 | > 50 |  |  |  |  |  |  |  |  |  |  |  | 
7 | O=C1c2ccccc2C(=O)c2c(O)c(C(O)c3ccc(Br)s3)cc(O)c21 (centres undefined) | 48.1 | 39.4 | 43.9 | 23 | 25.1 | 14.4 | > 50 |  |  |  |  |  |  |  |  |  |  |  | 
8 | O=C1c2ccccc2C(=O)c2c(O)c(C(c3ccc(OC(F)(F)F)cc3)N(CCCl)CCCl)cc(O)c21 (centres undefined) | > 50 | 42.8 | 34.8 | > 50 | > 50 | 11.3 | > 50 |  |  |  |  |  |  |  |  |  |  |  | 
9 | O=C1c2ccccc2C(=O)c2c(O)c(C(c3ccsc3)N(CCCl)CCCl)cc(O)c21 (centres undefined) | 19.3 | 22.5 | 22.4 | 21.9 | 13.7 | 23.1 | 35.4 |  |  |  |  |  |  |  |  |  |  |  | 
10 | COc1ccc(C(O)c2cc(O)c3c(c2O)C(=O)c2ccccc2C3=O)cc1OC (centres undefined) | > 50 | > 50 | > 50 | > 50 | > 50 | > 50 | > 50 |  |  |  |  |  |  |  |  |  |  |  | 
11 | O=C1c2ccccc2C(=O)c2c(O)ccc(O)c21 [QUINIZARIN] | > 200 | > 200 | > 200 | > 200 | > 200 | > 200 | > 200 |  |  |  |  |  |  |  |  |  |  |  | 
12 | O=C1c2ccccc2C(=O)c2c(O)c(C(O)c3cccs3)cc(O)c21 (centres undefined) | 36.2 | > 50 | 45 | 28.9 | 37.9 | 16.6 | > 50 |  |  |  |  |  |  |  |  |  |  |  | 
13 | Cc1ccc(C(O)c2cc(O)c3c(c2O)C(=O)c2ccccc2C3=O)s1 (centres undefined) | 42.3 | > 50 | > 50 | 35.8 | 44.7 | 23.6 | > 50 |  |  |  |  |  |  |  |  |  |  |  | 
14 | CSc1ccc(C(c2cc(O)c3c(c2O)C(=O)c2ccccc2C3=O)N(CCCl)CCCl)cc1 (centres undefined) | > 50 | 39.3 | 41.4 | > 50 | 20.6 | 15.4 | > 50 |  |  |  |  |  |  |  |  |  |  |  | 
15 | CCOc1ccc(C(O)c2cc(O)c3c(c2O)C(=O)c2ccccc2C3=O)cc1 (centres undefined) | > 50 | > 50 | > 50 | > 50 | > 50 | > 50 | > 50 |  |  |  |  |  |  |  |  |  |  |  | 
16 | O=C1c2ccccc2C(=O)c2c(O)c(C(O)c3ccc(Cl)cc3Cl)cc(O)c21 (centres undefined) | 18.9 | 28.4 | 34.6 | 17.8 | 12.5 | 12.7 | > 50 | 40.13 | Dose-dependent effect | Active | Active | Active | Active | Active | Active | Active | 11.56 | 32.87 | 7.38
17 | N#Cc1ccc(C(O)c2cc(O)c3c(c2O)C(=O)c2ccccc2C3=O)cc1 (centres undefined) | 14.9 | 28.6 | 26.9 | 17.6 | 12.8 | 12.6 | > 50 |  |  |  |  |  |  |  |  |  |  |  | 
18 | O=C1c2ccccc2C(=O)c2c(O)c(C(O)c3ccc(Cl)s3)cc(O)c21 (centres undefined) | 21.2 | 29.3 | 47.2 | 33 | 24.4 | 17.75 | > 50 |  |  |  |  |  |  |  |  |  |  |  | 
19 | CSc1ccc(C(O)c2cc(O)c3c(c2O)C(=O)c2ccccc2C3=O)cc1 (centres undefined) | > 50 | > 50 | > 50 | > 50 | > 50 | > 50 | > 50 |  |  |  |  |  |  |  |  |  |  |  | 
20 | O=C1c2ccccc2C(=O)c2c(O)c(C(O)c3ccsc3)cc(O)c21 (centres undefined) | > 50 | > 50 | > 50 | > 50 | > 50 | > 50 | > 50 |  |  |  |  |  |  |  |  |  |  |  | 
21 | O=C1c2ccccc2C(=O)c2c(O)c(C(O)c3ccc(OC(F)(F)F)cc3)cc(O)c21 (centres undefined) | 32 | 30.5 | 39.5 | 22.3 | 26.5 | 13.7 | > 50 |  |  |  |  |  |  |  |  |  |  |  | 
